Patent US20250281495A1, “METHODS FOR INHIBITING INFLAMMATION AND PROGRESSION OF ATHEROSCLEROTIC PLAQUES AND CARDIOVASCULAR EVENTS IN PATIENTS WITH CEREBRO- AND CARDIO-VASCULAR DISEASE” (ICAHN SCHOOL OF MEDICINE AT MOUNT SINAI, priority 2021, published 2025)

Test system: kinase phosphorylation (pCREB, pp38, pMAPKA2P, pS6, pERK1/2) in PBMCs
Experiment: CyTOF screening of candidate small molecules in healthy PBMCs stimulated with atherosclerotic plasma
Type: cell-based, human
Conditions: for reversal of the inflammatory signature activated by atherosclerotic plasma: CyTOF screening
Protocol: To test the efficacy of candidate small molecules in reversing immune response of PBMCs to atherosclerotic plasma, the inventors examined cell type-specific pharmacologic effects of selected candidate compounds. Using healthy PBMCs, the inventors assessed the activity of selected small molecules in the presence of atherosclerotic plasma stimulation that followed 30 minutes of pretreatment with each candidate compounds. Using CyTOF mass-cytometry, the inventors measured the specific inhibition of kinase phosphorylation (i.e., pCREB, pp38, pMAPKA2P, pS6, pERK1/2) in each cell type at the single cell level for each drug (FIGS. 8 and 9).

[1] = CD14+ and CD16+ monocytes and CD1c+ DC (these cells)
[2] = CD14+ and CD16+ monocytes and CD1c+ DC, atherosclerotic plasma
[3] = CD16+ monocytes and CD1c+ DC, atherosclerotic plasma

SMILES | ERK1/2 phosphorylation in response to atherosclerosis plasma [1] | p38 phosphorylation in response to atherosclerosis plasma [1] | CREB phosphorylation [2] | S6 phosphorylation [2] | MAPKA2P phosphorylation [3] | reversal of the inflammatory signature activated by atherosclerotic plasma | inhibition of most specific kinase phosphorylation activated by atherosclerosis plasma (cell-specificity for monocytes and CD1c+ DC, 30 minutes of pretreatment) | p38 phosphorylation (CD1c+ DC, atherosclerotic plasma) | ERK1/2 phosphorylation [3] | phosphorylation of major kinases (e.g., CREB and S6) implicated in the inflammatory transcriptional reprogramming (atherosclerotic plasma)
CS(=O)(=O)O.Cn1cc(C2=C(c3cn(CCCSC(=N)N)c4ccccc34)C(=O)NC2=O)c2ccccc21 [Ro 31-8220 mesylate] | not inhibited | not inhibited | significant inhibition | significant inhibition | significant inhibition | reversed | significant inhibition | – | – | –
CC[C@H](C)C(=O)O[C@H]1CCC=C2C=C[C@H](C)[C@H](CC[C@@H]3C[C@@H](O)CC(=O)O3)[C@H]21 [Mevastatin] | – | – | – | – | – | did not fully reverse | – | inhibited | inhibited | did not affect
